Data set [1] deals with T1, human estrogen receptor α (Homo sapiens, UniProt P03372).
T1 construct: purchased Panvera
T1 sequence (P03372 1-595): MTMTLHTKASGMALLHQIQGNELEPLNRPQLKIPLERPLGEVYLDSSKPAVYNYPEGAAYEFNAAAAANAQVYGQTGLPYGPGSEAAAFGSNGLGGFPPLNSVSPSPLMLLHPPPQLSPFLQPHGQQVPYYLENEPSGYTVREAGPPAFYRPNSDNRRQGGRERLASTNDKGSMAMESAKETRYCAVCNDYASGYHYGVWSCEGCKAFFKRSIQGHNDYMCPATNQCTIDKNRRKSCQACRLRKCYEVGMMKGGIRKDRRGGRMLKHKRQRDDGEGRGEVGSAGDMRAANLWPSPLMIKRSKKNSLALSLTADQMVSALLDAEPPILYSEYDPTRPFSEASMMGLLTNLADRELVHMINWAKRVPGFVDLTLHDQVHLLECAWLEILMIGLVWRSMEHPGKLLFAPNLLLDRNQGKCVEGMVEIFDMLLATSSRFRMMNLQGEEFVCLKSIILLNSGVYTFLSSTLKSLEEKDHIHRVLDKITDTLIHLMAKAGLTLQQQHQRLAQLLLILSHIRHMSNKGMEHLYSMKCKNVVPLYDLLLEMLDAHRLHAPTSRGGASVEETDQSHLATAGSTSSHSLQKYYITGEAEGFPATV
The data set is described as follows: Estrogen Receptor α Flash Plate Assay (binding of radiolabeled estrogen). The note with it: flash plate binding, 0.5 nM radiolabeled estrogen; number in brackets = No. of determinations; NA = no detected activity at test concentration; read-out: Estrogen Receptor α in μM (No.).

A further data set deals with T2, hER-β (Homo sapiens, UniProt Q92731).
T2 construct: purchased Panvera
The data set is described as follows: Estrogen Receptor β Fluorescence Polarization Assay (binding of Fluormone ES2). The note with it: fluorescence polarization binding, Fluormone ES2; number in brackets = No. of determinations; NA = no detected activity at test concentration; read-out: Estrogen Receptor β in μM (No.). An excerpt: This assay monitors binding of a fluorescent analog of estrogen (Fluormone ES2, Panvera) to the estrogen receptor. Plates are read in a fluorometer that can be set to polarization mode. A decrease in […] relative to vehicle control is an indication of binding of a compound to the receptor.
It is crucial to avoid introduction of air bubbles into the reaction in each well of the 96 well plate throughout this procedure. (Bubbles on the surface of the reaction disrupt light flow, affecting the polarization reading.) However, it is also crucial to effectively mix the reaction components upon addition to the well.
On ice, a 2× standard mixture of Assay Buffer (Panvera), 10 nM DTT and 40 nM ES2 was prepared. On ice, a 2× reaction mixture of Assay Buffer (Panvera), and 20 nM hER-β (Panvera) and 40 nM ES2 was also prepared.
Dilutions of test compound were prepared in 30% (v/v) dimethyl sulfoxide/50 mM HEPES, pH 7.5. At this point, the dilutions were 40× the final required concentration.
The standard mixture at 50 μL was then added to each well. The reaction mixture at 48 μL was added to all wells. The compound dilution at 2.5 μL was added to the appropriate wells. The reaction mixtures were mixed using a manual pipette, a roll of aluminum foil adhesive cover was placed on the plate and the plate incubated at room temperature for 1 hour.
On the technique in general: In fluorescence polarisation assays a small probe gives low polarisation when free and higher when bound to something large.

The subject of the next data set is MCF-7 cells. The data set is described as follows: MCF-7 Cell Proliferation Assay (14C-thymidine, agonist and antagonist mode). The note with it: Homo sapiens, number in brackets = number of tests, NA = no detected activity at test concentration; for pEC50: MCF7, agonist mode; for pIC50: MCF7, antagonist mode with 10 nM 17β-estradiol. The data set is classed as cell-based.

For another data set, the system named is Ishikawa cells. Put plainly: Alkaline Phosphatase Assay in Human Endometrial Ishikawa Cells (agonist and antagonist mode). The note with it: Homo sapiens, number in brackets = number of tests, NA = no detected activity at test concentration; for pEC50: agonist mode; for pIC50: antagonist mode with 10 nM 17β-estradiol. The data set is classed as cell-based.

Molecules are shown by their SMILES. pEC50, pIC50: −log10 of the molar value.

T2 sequence (Q92731 whole entry): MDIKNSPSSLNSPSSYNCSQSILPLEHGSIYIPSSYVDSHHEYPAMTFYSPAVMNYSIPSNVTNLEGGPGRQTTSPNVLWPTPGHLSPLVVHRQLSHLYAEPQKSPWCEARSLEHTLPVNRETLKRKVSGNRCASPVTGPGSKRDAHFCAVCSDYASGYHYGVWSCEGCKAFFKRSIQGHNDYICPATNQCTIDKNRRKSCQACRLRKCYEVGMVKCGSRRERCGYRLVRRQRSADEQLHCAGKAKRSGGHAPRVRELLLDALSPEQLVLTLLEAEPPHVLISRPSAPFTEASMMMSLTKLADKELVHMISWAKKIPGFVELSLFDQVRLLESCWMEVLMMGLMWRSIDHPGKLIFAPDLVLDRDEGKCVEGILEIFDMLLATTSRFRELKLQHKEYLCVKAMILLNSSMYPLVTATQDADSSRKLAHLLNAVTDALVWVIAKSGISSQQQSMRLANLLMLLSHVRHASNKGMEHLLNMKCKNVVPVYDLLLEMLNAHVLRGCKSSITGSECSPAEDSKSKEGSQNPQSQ

By melting point is commonly meant the temperature, or range, at which the solid turns liquid. On to `CC(C)(C)[Si](C)(C)Oc1ccc2c(c1)OCc1c-2c(=O)oc2cc(O[Si](C)(C)C(C)(C)C)ccc12`, for which the melting point fell in the range of 150 to 151 °C.

`CC(C)(C)[Si](C)(C)Oc1ccc2c(c1)OC(O)C1=C2COc2cc(O[Si](C)(C)C(C)(C)C)ccc21` (centres unmarked) had a melting point of 188 to 190 °C.

In turn, `CC(C)(C)[Si](C)(C)Oc1ccc2c(c1)OCc1c-2c(=O)oc2cc(F)ccc12` registered a melting point of 197 to 198 °C.

For the molecule `CC(C)(C)[Si](C)(C)Oc1ccc2c(c1)OCC1=C2C(O)Oc2cc(F)ccc21` (centres unmarked), the melting point is 166 to 167 °C.

One may read the pEC50 as −log10 of the EC50, conventionally taken in molar units. The low end stands for a high EC50, the high end for a low EC50. A word on the pIC50: it is the IC50 on a negative log10 scale, so that one unit is a factor of ten. A higher pIC50 goes with a small IC50. For the molecule `O=c1oc2cc(O)ccc2c2c1-c1ccc(O)cc1OC2` [Compound 1, 2,8-Dihydroxy-11H-chromeno[4,3-c]chromen-5-one], the melting point was above 350 °C. Moreover, in data set [1], the IC50 is 0.505 µM. Moreover, on hER-β, the IC50 was determined as 0.061 µM. In the data set with MCF-7 cells, this molecule had a pEC50 of 5.92 and a pIC50 below 5.00. Moreover, in the data set on Ishikawa cells, the pEC50 is 6.89 and the negative logarithm of the IC50 (pIC50) was below 5.00.

Consider `COc1ccc2c(c1)OCc1c-2c(=O)oc2cc(OC)ccc12` [Compound 2, 2,8-DiMethoxy-11H-chromeno[4,3-c]chromen-5-one], for which the melting point is 200 to 201 °C. Further, in the data set on MCF-7 cells, the negative logarithm of the EC50 (pEC50) was below 5.00 and the pIC50 was below 5.00. In the data set on Ishikawa cells, the negative-log EC50 (pEC50) was below 5.00 and the pIC50 was below 5.00.

Turning to `O=c1oc2cc(F)ccc2c2c1-c1ccc(O)cc1OC2` [Compound 37, 8-Fluoro-2-hydroxy-11H-chromeno[4,3-c]chromen-5-one], the melting point was in the range of 259 to 260 °C.

For `CC(C)(C)C(=O)Oc1ccc2c(c1)OC(C)(c1ccc(OCCCN3CCCCC3)cc1)C1=C2COc2cc(OC(=O)C(C)(C)C)ccc21` (centres unmarked) [Compound 43, 2,2-Dimethyl-propionic acid 8-(2,2-dimethyl-propionyloxy)-11-methyl-11-[4-(3-piperidin-1-yl-propoxy)-phenyl]-5,11-dihydro-chromeno[4,3-c]chromen-2-yl ester], the IC50 in data set [1] stood at 0.62 µM; at hER-β it was 0.165 µM. In addition, the negative logarithm of the EC50 (pEC50) in the data set on MCF-7 cells and in the data set on Ishikawa cells was below 5.00 in each case. In addition, the negative logarithm of the IC50 (pIC50) is below 6.00 in the data set with MCF-7 cells and 5.80 with Ishikawa cells.

The record behind these values is patent US7105679B2, “Heteroatom containing tetracyclic derivatives as selective estrogen receptor modulators” (priority 2001, dated 2006).
